According to patent publication US20220025003A1, “REAGENTS AND METHODS FOR CONTROLLING PROTEIN FUNCTION AND INTERACTION” (University of Washington, priority 2018, published 2022):

Assays:
CXCR4 [1] = test: dCas9 transcription control, immunofluorescence FACS; type: cell-based, human; settings: CXCR4 and CD95
[2] = test system: RAS/ERK pathway in HEK293 cells; test: Activation of NS3a-CDAR, phospho-ERK blot; type: cell-based; settings: 10 μM drug, 60 min
Experimental: 18-24 hours prior to transfection, 3.0×10^5 HEK293 cells were plated onto poly-D-lysine 12 well plates. Immediately prior to transfection, media was aspirated and cells were washed with 1 mL of pre-warmed (37° C.) PBS, then serum starved with FBS-free DMEM. Following serum starvation, cells were transfected with 1 μg of FLAG-tagged NS3a-CDAR, BH3-NS3a-CDAR, or an empty pCDNA5 vector. Transfected cells were allowed to serum stave for 18-20 hours prior to drug treatment. For drug treatment, serum-free media was prepared with DMSO or 10 μM of a drug. Media was aspirated, washed once with pre-warmed DPBS, then treated with drug/DMSO media for the requisite amount of time. Media was subsequently aspirated and the cells were washed twice with 1 mL chilled PBS, then lysed with 75 μL Mod. RIPA buffer (50 mM Tris, pH 7.8, 1% IGEPAL CA-630, 150 mM NaCl, 1 mM EDTA, 2 mM Na3VO4, 30 mM NaF, Pierce Protease Inhibitor Tablet). Cleared lysates were subjected to SDS-PAGE and transferred to nitrocellulose. Blocking and antibody incubations were done in TBS with 0.1% Tween-20 (v/v) and blocking buffer (Odyssey). Primary antibodies were all purchased from Cell Signaling Technologies and were diluted as follows: Total ERK (1:2500, #9107), phosphorylated ERK (1:2500, #4370), FLAG (1:2,500, #D6W5B). Blots were washed three times in TBS with 0.1% Tween-20. Antibody binding was detected by using near-infrared-dye-conjugated secondary antibodies and visualized on the LI-COR Odyssey scanner. Blots were quantified via densitometry with Image Studio (LI-COR).

GFP, CD95 and CXCR4 = test: 3-gene experiment (GFP, CD95, CXCR4) by RT-qPCR; type: cell-based; settings: 10 μM danoprevir, 1 μM grazoprevir, 1 μM asunaprevir
Text: Cells were harvested on day 5 as described above for other samples to be analyzed to qPCR.

CXCR4 [3] = test: Danoprevir/grazoprevir titrations to linearize CXCR4 or CD95 expression; type: cell-based, human; settings: increasing proportion of grazoprevir added to danoprevir titration
Text: Data were fit to four-parameter log dose-response curves (fitting EC50, upper and lower baselines, and Hill coefficient) in Graphpad Prism 5.

NS3a = settings: read-out: NS3a:drug Ki; published enzyme inhibition studies; cited from earlier work
NS3a inactive (S139A) = target: T1, NS3a inactive (S139A) (Hepatitis C virus genotype 1b, UniProt Q9WMX2, A1176V/E1056D/L1047A/L1120M/Q1112P/R1052K/S1165A/V1062L/V1196I); test: Fluorescence polarization competition assay with FAM-ANR; type: binding; settings: 75 nM NS3a, read-out: apparent IC50
T1 construct: Avi-His6-NS3a; the text calls the FP protein non-biotinylated) (N); made in house; host or cells: E. coli BL21 (DE3)
Experimental: (§1) Fluorescence polarization competition assays were used to determine the ability of danoprevir to displace ANR. A 75 nM solution of NS3a in FP-Buffer was incubated with 50 nM FAM-ANR in a black 96-well plate for 1 hour in the dark. 3-fold serial dilutions of danoprevir were prepared in FP-Buffer such that, when added to the NS3a/FAM-ANR solution, the highest concentration of danoprevir tested was 10 μM. Plates were incubated for 1 hour in the dark. Fluorescence polarization was measured at 22° C. on a Perkin Elmer EnVision™ fluorometer (excitation, 495 nm; emission 520 nm). Each measurement was carried out in triplicate. Anisotropy values were obtained and a nonlinear regression model was used to fit curves with GraphPad Prism.

NS3a active = target: T2, NS3a active (Hepatitis C virus genotype 1b, UniProt Q9WMX2, A1176V/E1056D/L1047A/L1120M/Q1112P/R1052K/V1062L/V1196I); test: as above; type: binding
T2 construct: Avi-His6-NS3a; made in house; host or cells: E. coli BL21 (DE3)
Experimental: as §1

HeLa cells = test: Widefield microscopy for signaling phenotype analysis; type: cell-based; settings: EGFP-DNCR2-TIAM, BFP-GNCR1-LARG and NS3a-CAAX in HeLa cells
Experimental: Widefield images were collected in an environmental chamber with humidity control, 37° C., and 5% CO2 on a Leica DMi8 automated fluorescence microscope. Cells were plated on glass-bottomed 96-well plates (Cellvis). Plates were treated with 10 μg/mL bovine fibronectin (Sigma Aldrich) for 1 hour and washed once with PBS.
The cell line used was TRex™-HeLa (ThermoFisher Scientific), into which Lifeact-mCherry™ was stably integrated into the doxycycline-regulated Flp-In site by co-transfection of the pCDNA5-FRT/TO-Lifeact-mCherry™ vector with the Flp recombinase plasmid pOG44 (ThermoFisher Scientific) according to manufacturer's protocols. Lifeact-mCherry™ was induced by addition of 1 μg/mL doxycycline to culture media. For expression of signaling effector proteins, 1 day prior to imaging, 5×10^6 cells were transiently transfected with 10 μg DNA in a 100 μL electroporation tip using a Neon transfection system (ThermoFisher Scientific) according to manufacturer's recommendations for HeLa cells. 5×10^3 cells were plated in each well of the 96-well plate used for imaging. Cells recovered in complete DMEM with 10% FBS overnight. […] For Rac/Rho regulation, the construct PB-NS3a-CAAX-IRES-EGFP-DNCR2-TIAM-P2a-BFP-GNCR1-LARG was used, with images collected for the mCherry™ (Lifeact) and EGFP (DNCR2-TIAM) channels. […]

[4] = test system: mCherry reporter gene in HEK293T cells; test: Chemically-disruptable Gal4(DBD)-NS3a(H1)/ANR-VPR transcriptional regulation; type: cell-based; settings: 1 μM drug, 24 hours
Experimental: Cells were subsequently transfected with 1 μg of the Gal4 reporter plasmid (UAS-mCherry™/CMV-Gal4-NS3a(H1)-P2A-ANR-Myc-BFP-VPR-NLS) in OptiMem™. […] Supernatant was subsequently removed and the cells were re-suspended in 400 μL DPBS and analyzed on a FACS LSRII (BD Biosciences).
For Gal4/NS3a-CDP mediated transcriptional activation FACS experiments, 10,000 single cell events were collected for each of the samples run. […] The gathered FACS data were analyzed using FlowJo™ (v.10.1).

CC(C)(C)OC(=O)N[C@H]1CCCCC/C=C\[C@@H]2C[C@@]2(C(=O)NS(=O)(=O)C2CC2)NC(=O)[C@@H]2C[C@@H](OC(=O)N3Cc4cccc(F)c4C3)CN2C1=O [danoprevir]
effect on gene expression in the absence of the guide RNA (CXCR4 [1]): no effect
phospho-ERK levels in cells expressing NS3a-CDAR [2]: robust increase in phospho-ERK levels
transcriptional output state in 3-gene system (GFP, CD95 and CXCR4): CD95 expression under control of DNCR2
linear output range of CXCR4 expression (CXCR4 [3]): 3 orders of magnitude
Ki (NS3a): 1 nM
IC50 (NS3a inactive (S139A)): < 75 nM
displacement of ANR from NS3a (NS3a active): potently and dose-dependently displace ANR from NS3a
IC50 (NS3a active; NS3a active, 75 nM NS3a, FAM-ANR, read-out: apparent IC50): < 75 nM
cell shape change (HeLa cells): caused cell expansion
mCherry expression after drug treatment [4]: decreased mCherry™ expression to background levels
